Literature values in patent US8518458B2, “Tea-derived compositions and methods of using same for cardiovascular health” (Immune Guard, LLC, priority 2006, dated 2013).

Settings: spontaneously hypertensive rats

CCNC(=O)CC[C@H](N)C(=O)O [L-theanine, γ-glutamylethylamide]
effect on blood pressure: reduces blood pressure
